From US20160061820A1, “IN VITRO BILIARY EXCRETION ASSAY” (HUREL CORPORATION, priority 2014, published 2016)
Where two headings read alike, the source gives them in different places.

Experiments:
[1] = test system: cultured human hepatocytes; assay: in vitro
Procedure: (§1) The single well method of assessing biliary clearance of the invention was used.
(§2) A coculture was exposed to each tested compound in culture media at the indicated concentration for 20 minutes. The media was then removed (collection #1) and stored for analysis of remaining compound. The cultures were washed twice with buffer solution (collections #2 and #3) and each wash solution was stored for analysis of remaining taurcholate. […] This releases taurcholate accumulated in the bile of the canaliculi. At the end of the incubation period the culture media was collected (collection #4). The cells were then exposed to deionized water which functions to disrupt the cellular membrane and release the compound accumulated in the cellular compartment (collection #5). Because any compound present in the canaliculi was already collected in collection #4, collection #5 contains any compound present in the cell but not including any present in the canaliculi.
(§3) In teach figure the measured amount of compound in bile and the measured amount of compound in the cytoplasm are presented together as two parts of a single bar on the left side of the figure. The measured value for the bile is also shown as a bar on the right side of the figure. Comparing the height of the right bar (bile) to the height of the composite left bar (total of cytoplasm+bile) allows visulation of the portion of the compound that accumulated in the bile. […] Equation 2 was used to calculate the BEI for each compound in this system. The data were used to calculate the Biliary Clearance (Equation 1) and BEI (Equation 2) for each tested compound.

cultured rat hepatocytes = assay: in vitro
Procedure: as §1
(§4) The media was then removed (collection #1) and stored for analysis of remaining compound. […] At the end of the incubation period the culture media was collected (collection #4). The cells were then exposed to deionized water which functions to disrupt the cellular membrane and release the compound accumulated in the cellular compartment (collection #5). Because any compound present in the canaliculi was already collected in collection #4, collection #5 contains any compound present in the cell but not including any present in the canaliculi. […] The data is presented in FIG. 9-13 using the same format as used in FIGS. 4-8.
(§5) Equation 2 was used to calculate the BEI for each compound in this system.

[2] = test system: cryopreserved human hepatocytes in sandwich culture; conditions: cited from earlier work
in vitro [3] = conditions: hepatocytes
Procedure: as §1, §2, §3

in vitro [4] = conditions: rat, hepatocytes
Procedure: as §1, §4, §5

[5] = test system: primary human hepatocytes grown in a hepatocyte-stromal cell coculture
Procedure: (§6) Accumulation in the bile and accumulation in the cell were measured separately in a single well of a coculture plate. The measured values for bile accumulation and cell accumulation are shown as separately shaded portions of a single bar. The error bars represent a single standard deviation.
as §6, with “FIG. 18 compares the results of three independent experiments measuring biliary uptake of pravastatin by primary human hepatocytes grown in a hepatocyte-stromal cell coculture. Accumulation” for “Accumulation”

bile canaliculi = assay: Disruption of canaliculi, CDFDA staining (Example 3); assay type: cell-based, human; conditions: 5 uM CDFDA with 10 uM LatA, 20 min
Procedure: In the second method, the cultures were exposed to buffer containing latranculin A (LatA). The LatA functions to disrupt microfilament organization, a key step in tight junction formation, which allows bile present in the canaliculi to escape. Cells were first washed twice in HBSS buffer with Ca+. Cells were then incubated with 5 uM CDFDA in HBSS buffer with Ca+ and 10 uM LatA for 20 min. Cells were then washed two times in HBSS buffer with Ca+.

[6] = Lundquist (2014); cited from earlier work
[7] = Bi et al. (2006), two culture method

In the case of `C[C@]12CC[C@@H]3c4ccc(O)cc4CC[C@H]3[C@@H]1CC[C@@H]2O[C@@H]1O[C@H](C(=O)O)[C@@H](O)[C@H](O)[C@H]1O` [estradiol-glucuronide], the microsomal CLint [1] is listed as 0.3 µL/min/mg, the “Rat In Vitro PK Intrinsic CLint, biliary” value (cultured rat hepatocytes; rat, hepatocytes) is listed as 2.7 ± 0.1 μl/min/mg protein and the “Biliary Excretion Index (BEI)” value [2, 7] is listed as 37%. The “Uptake Rate” value [2] was 2.2 pmol/min/mg protein and the microsomal CLint [2] was 1.8 µL/min/mg.
Work on `CC[C@H](C)C(=O)O[C@H]1C[C@H](O)C=C2C=C[C@H](C)[C@H](CC[C@@H](O)C[C@@H](O)CC(=O)O)[C@H]21` [pravastatin] yielded a microsomal CLint (in vitro [3]; human) of 0.38 µL/min/mg and a microsomal CLint (in vitro [4]) of 0.29 ± 0.02 µL/min/mg.
In the case of `C[C@H](CCC(=O)NCCS(=O)(=O)O)[C@H]1CC[C@H]2[C@@H]3[C@H](O)C[C@@H]4C[C@H](O)CC[C@]4(C)[C@H]3C[C@H](O)[C@]12C` [taurocholate, taurocholic acid], the microsomal CLint (in vitro [3]) is reported as 23 µL/min/mg, the BEI (cultured rat hepatocytes; rat hepatocyte coculture, compound 2 uM (pravastatin 5 uM), 20 min, latrunculin 5 uM 30 min) is reported as 60% and the “Rat In Vitro PK Predicted CLbiliary” value (cultured rat hepatocytes; scaled from Clint,bile with 200 mg protein/g liver and 40 g liver/kg) is reported as 67.1 ± 4.8 mL/min/kg. The “Bile accumulation, Mean” value ([5]; Exp. 1) was 541.90, the “Bile accumulation, Mean” value ([5]; Exp. 2) was 556.08 and the “Bile accumulation, Mean” value ([5]; Exp. 3) was 543.31.
In the case of `C/C1=C/C(=O)O[C@@H]2C[C@@H](CC[C@H](C)/C=C\C=C\CC1)O[C@@](O)([C@@H]1CSC(=O)N1)C2` [LatA, latrunculin A], the “CDA staining of canaliculi” value (bile canaliculi) is reported as “no CDA staining was apparent”.
For `CC(C)c1nc(N(C)S(C)(=O)=O)nc(-c2ccc(F)cc2)c1/C=C/[C@@H](O)C[C@@H](O)CC(=O)O` [rosuvastatin], the microsomal CLint (in vitro [3]; human) was 6 µL/min/mg, the microsomal CLint (in vitro [4]) was 3.5 ± 0.3 µL/min/mg and the “Fold Difference” value (cultured rat hepatocytes; rat) was 0.6. For the same compound, the “Rat In Vivo PK In Vivo CLbiliary” value [6] was 48.0 ± 10.8 mL/min/kg, the “Biliary Excretion Index (BEI)” value [2, 7] was 43-58% and the “Uptake Rate” value [2, 7] was 15-26 pmol/min/mg protein.
In the case of `C[C@H]1O[C@@H](O[C@H]2[C@@H](O)C[C@H](O[C@H]3[C@@H](O)C[C@H](O[C@H]4CC[C@@]5(C)[C@H](CC[C@@H]6[C@@H]5C[C@@H](O)[C@]5(C)[C@@H](C7=CC(=O)OC7)CC[C@]65O)C4)O[C@@H]3C)O[C@@H]2C)C[C@H](O)[C@@H]1O` [digoxin], the microsomal CLint (in vitro [3]; human) is given as 0.4 µL/min/mg, the microsomal CLint (in vitro [4]) is given as 0.31 ± 0.02 µL/min/mg and the “Uptake Rate” value [2, 7] is given as 0.7-1.5 pmol/min/mg protein.
